Test results: the CheMixHub ionic liquid set

Assay: xn = mol fraction of the nth substance listed

CC(=O)[O-].CCCC[N+](CCCC)(CCCC)CCCC + CCCCCCCCCCCC[N+](C)(C)C.[Br-] + O
viscosity [mPa·s], 100 kPa
Settings	x2 = 5.421e-05, x1 = 0.0001802	x2 = 0.0001084, x1 = 0.0001801	x2 = 0.0001626, x1 = 0.0001801	x2 = 0.0002168, x1 = 0.0001801	x2 = 0.000271, x1 = 0.0001801	x2 = 0.0003252, x1 = 0.0001801	x2 = 0.0003793, x1 = 0.0001801	x2 = 0.0004335, x1 = 0.0001801	x2 = 0.0004877, x1 = 0.0001801	x2 = 0.0005418, x1 = 0.0001801
293.15 K	1.029	1.031	1.032	1.033	1.034	1.034	1.035	1.035	1.035	1.035
298.15 K	0.916	0.919	0.92	0.922	0.924	0.926	0.928	0.929	0.93	0.931
303.15 K	0.808	0.81	0.813	0.816	0.817	0.82	0.82	0.82	0.822	0.821
308.15 K	0.724	0.726	0.727	0.729	0.729	0.73	0.731	0.731	0.732	0.732
313.15 K	0.657	0.659	0.662	0.664	0.665	0.667	0.667	0.668	0.669	0.669
318.15 K	0.607	0.607	0.609	0.61	0.611	0.613	0.613	0.617	0.618	0.619

F[B-](F)(F)F.[Li+] + CCCC[n+]1ccn(C)c1.N#C[N-]C#N
electrical conductivity [S/m], 101 kPa
Settings	x2 = 0.8903	x2 = 0.9069	x2 = 0.933	x2 = 0.9549	x2 = 0.9799
288.15 K	–	0.426	0.514	0.543	0.622
298.15 K	0.595	0.679	0.8	0.842	0.972
333.15 K	1.89	2.07	2.31	2.41	2.7

CCCCCC[n+]1ccn(C)c1.F[B-](F)(F)F + CN(CCO)CCO
101 kPa
Settings	viscosity [mPa·s]
303.15 K, x2 = 0.3916	72.6
303.15 K, x2 = 0.4949	69.8
303.15 K, x2 = 0.7928	62.2
313.15 K, x2 = 0.5936	41.8
313.15 K, x2 = 0.8824	36.8
318.15 K, x2 = 0.4949	34.3
